In patent publication US6872722B2, “Therapies for tissue damage resulting from ischemia” (Pfizer Inc, priority 2001, dated 2005):

O=c1ccc(S(=O)(=O)c2cccc(Br)c2)n[nH]1 [Example 4I, 6-(3-Bromo-benzenesulfonyl)-2H-pyridazin-3-one]
melting point: > 220 °C
